The values below come from paper PMC9730820, “Near-infrared-dye labeled tumor vascular-targeted dimer GEBP11 peptide for image-guided surgery in gastric cancer” (Frontiers in Oncology, 2022).

In data set [1] the test system is SGC7901-Luc orthotopic gastric cancer xenograft. In words: Real-time NIR fluorescence imaging-guided resection. The class given is in vivo, athymic nude mice. Particulars: surgery 24h after probe injection, checked by BLI. The procedure:
Orthotopic gastric cancer xenograft mice were anesthetized with a ketamine/xylazine mixture via intraperitoneal injection 24h after injection of (GEBP11)2-ACP-Cy5.5 probe. Real-time NIR fluorescence imaging was used to guide the removal of the primary cancer lesion and potential metastatic lesions. After resection, all surgical specimens and surgical beds were examined by NIR fluorescence imaging to confirm complete resection. To compare the efficacy of the dimer GEBP11 NIR imaging, BLI imaging pictures were taken before and after resection, the findings of BLI imaging were kept blind to the researcher who performed the surgery.

Data set [2] deals with tumor vascular epithelial cells (CD31). As to the kind of experiment: Fluorescence microscopy co-localisation of probe with CD31 in resected tumor sections. Particulars: frozen sections of resected samples, FITC-labeled anti-mouse CD31, confocal fluorescence microscopic examination. The procedure:
Resected samples were embedded in optimum cutting temperature (OCT) compound (Leica, Germany), and 10μm-thick frozen tissue sections were cut on a cryostat microtome (Leica, Germany). The sections were fixed immediately with precooled isoacetone for 30min and stored at –20 °C. Hematoxylin and Eosin (H&E) staining was used for histological analysis. Tumor margins defined by H&E staining and NIR fluorescence were compared. All slides were scanned by using Pannoramic-250 Flash II slide-scanner (3D-Histech, Budapest, Hungary) and analyzed by Case viewer software (3D-Histech, Budapest, Hungary). Mouse tumor vascular endothelial cells were stained by FITC-labeled rat anti-mouse CD31 (89C2) antibody (CST, Boston, USA). Fluorescence microscopy was used to validate the colocalization of (GEBP11)2-ACP-Cy5.5 probe and tumor microvessel. Fluorescence microscopic images were acquired at 100x magnification by using Echo Revolve upside-down integrated fluorescence microscope (ECHO, USA).

The test system of data set [3] is SGC7901 subcutaneous xenograft. As to the kind of experiment: Live NIR fluorescence imaging in subcutaneous gastric cancer xenograft model. Type of data set: in vivo, athymic nude mice. An excerpt:
All mice were fed irradiated alfalfa-free rodent diet (Envigo Teklad, Madison, WI) to reduce background in stomach and gut for one week prior to the imaging experiments. The mice models were used for in vivo imaging and surgical procedures when xenograft diameter reached 5 to 10 mm.

The subject of data set [4] is SGC7901 subcutaneous xenograft. In words: Ex vivo biodistribution of NIR signal in tumor and main organs. The note with it: tumors and major organs harvested at 24h after injection. Set-up: species or system athymic nude mice. How it is done: (§1) Subcutaneous tumor xenograft models were used to detect the biodistribution of NIR signals. Mice were euthanized at 24h after injection of the labeled probes or free Cy5.5. All assays were done in triplicates. Then tumor xenografts and main organs (heart, lung, kidney, bone, muscle, brain, spleen, liver, skin and intestines) were harvested. Living Image version 4.7.3 Software (IVIS) was used to quantify the NIR fluorescence intensity at selected ROIs. All ROI data were collected after subtracting background autofluorescence. Differences in the fluorescence intensities of the ROIs between different probes were statistically analyzed.

Assay in data set [5]: as above
On the set-up: species or system athymic nude mice. The note with it: mouse, in vivo, iv, 200 ul of 5 uM probe in PBS per mouse; ex vivo NIR signal, kidney relative to muscle, 24 h post-injection, n=3, bar label of Figure 3C. How it is done: as §1

Data set [6] concerns SGC7901-Luc orthotopic gastric cancer xenograft. As to the kind of experiment: Live NIR fluorescence imaging in orthotopic gastric cancer xenograft model. How it is done: All animal experiments were conducted in compliance with protocols approved by the Institute of Animal Use Committee of Air Force Medical University. All gastric cancer xenograft models were established in 6–8 week old female athymic nude mice. The SGC7901-Luc or SGC7901-GFP cell suspension at a concentration of 2 × 10^6 cells/mL was prepared. For subcutaneous xenograft model, SGC7901-GFP cells suspension (100μL/mouse) were injected subcutaneously into the right upper limb (for in vivo binding affinity test) or lower flank of mouse (for in vivo biodistribution assay). The orthotopic gastric cancer xenograft models were established as described previously ([21]), In brief, open abdominal surgery was performed on the mice under general anesthesia, SGC7901-Luc cells suspension (100μL/mouse) were injected into the subserosa layer of the stomach.
Tumor growth was monitored by Caliper IVIS Lumina II (PerkinElmer, MA, USA). GFP fluorescence imaging was performed in subcutaneous xenograft model. Bioluminescence imaging (BLI) was performed to monitor tumor growth in the orthotopic xenograft models. Because of its higher penetrability and sensitivity, peritoneal metastasis can be visualized clearly as well. Before BLI was acquired, mice were injected with D-luciferin (150 mg/kg) by intraperitoneal injection and anesthetized with 2% isoflurane. Living Image software 4.7.3 (IVIS) was used to quantify bioluminescence signals.
Xenograft mice were injected with 200 ul GEBP11-Cy5.5, (GEBP11)2-ACP-Cy5.5 or free Cy5.5 (5 µM in PBS) via tail veins. Live NIR fluorescence imaging was performed at different time points. NIR Fluorescence intensity was quantified by region-of-interest (ROI) measurement using Living Image software 4.7.3 (IVIS).

In data set [7] the test system is Co-HUVECs (HUVECs co-cultured with SGC7901 cells). In words: In vitro binding of Cy5.5 labeled GEBP11 probes, confocal fluorescence, with competitive inhibition by unlabeled GEBP11. The class given is cell-based, human. The note with it: 1μM probe, 6h, 37°C. The procedure: (§2) SGC7901 cells and HUVECs were cocultured as previously described ([18]). Co- HUVECs (co-cultured HUVECs), HUVECs and SGC7901 cells were harvested at log-growth phase and characterized by bench top fluorescent microscopy. Cells were incubated with 1μM GEBP11-Cy5.5 or (GEBP11)2-ACP-Cy5.5 for 6h at 37°C in a humidified atmosphere with 5% CO2. Binding affinity of the probes to cultured cells were detected by laser scanning confocal microscope (FV3000, Olympus, Japan). Nucleus were re-stained with ProLong™ Gold Antifade Mountant with DAPI (Invitrogen, USA) at room temperature. For binding specificity assessment, cells were pretreated with 25μM unlabeled GEBP11 for 30min at 37°C before incubating with the labeled probes.

In a further data set the test system is HUVECs. As to the kind of experiment: In vitro binding of Cy5.5 labeled GEBP11 probes, confocal fluorescence. Type of data set: cell-based, human. The note with it: 1μM probe, 6h, 37°C, laser scanning confocal microscope. The procedure:
as §2

In the next data set the test system is SGC7901 cells. Described as above. Type of data set: cell-based, human. Particulars: 1μM probe, 6h, 37°C, laser scanning confocal microscope. How it is done: as §2

Where a SMILES comes first, the peptide text is derived from it. Bridges are numbered along the chain shown (N, C = ends). [ ]: non-standard residue; d: D form. The star is where a group is joined. X1 = CC[N+]1=C(C=CC=CC=C2N(CCCCCC(=O)*)c3ccc4c(S(=O)(=O)O)cc(S(=O)(=O)O)cc4c3C2(C)C)C(C)(C)c2c1ccc1c(S(=O)(=O)O)cc(S(=O)(=O)[O-])cc21; Ahx = NCCCCCC(=O)O

As for `CC[N+]1=C(C=CC=CC=C2N(CCCCCC(=O)N[C@H]3CSSC[C@@H](C(=O)NCCCCCC(=O)N[C@H]4CSSC[C@@H](C(=O)O)NC(=O)[C@H](CCSC)NC(=O)[C@H](CC(C)C)NC(=O)[C@H](Cc5ccc(O)cc5)NC(=O)[C@H](CO)NC(=O)[C@H](CC(N)=O)NC(=O)[C@H](CCCCN)NC(=O)[C@H]([C@@H](C)O)NC4=O)NC(=O)[C@H](CCSC)NC(=O)[C@H](CC(C)C)NC(=O)[C@H](Cc4ccc(O)cc4)NC(=O)[C@H](CO)NC(=O)[C@H](CC(N)=O)NC(=O)[C@H](CCCCN)NC(=O)[C@H]([C@@H](C)O)NC3=O)c3ccc4c(S(=O)(=O)O)cc(S(=O)(=O)O)cc4c3C2(C)C)C(C)(C)c2c1ccc1c(S(=O)(=O)O)cc(S(=O)(=O)[O-])cc21` [(GEBP11)2-ACP-Cy5.5] (X1-CTKNSYLMC[Ahx]CTKNSYLMC-OH; disulfide 1-9, 11-19; N-terminus and C-terminus assumed), the “Residual cancer lesion after NIR-guided resection” value in data set [1] is listed as “No residual cancer lesion could be detected”. Moreover, the “Co-localisation of probe fluorescence with CD31” value in [2] was “co-localize with CD31”. For the same compound, in data set [3] (200 ul of 5 µM probe in PBS via tail vein, observed 0-96 h, IVIS ROI), the “Time at which NIR fluorescence signal at the tumor site peaked” value is given as 24 h. Besides, the “Distribution of the NIR probe in tumor and organs, ex vivo fluorescence imaging” value in data set [4] is on record as “Significant enrichment”. Further, the tissue to tissue ratio at 24 h in data set [5] was determined as 1.41. Besides, the “Time at which signal intensity at the tumor site peaked” value in data set [6] (200 ul of 5 µM probe via tail vein, IVIS ROI) amounted to 24 h. The “NIR fluorescence signal at the tumor sites at 6h compared with GEBP11-Cy5.5 or free Cy5.5” value in [6] (6h after injection) was “stronger NIR fluorescence signal”. In addition, in data set [7] (confocal microscope), the “Signal intensity compared with the mono probe” value was “much higher signal intensity than GEBP11-Cy5.5”. The “Fluorescence signal on Co-HUVECs after incubation with probe” value in data set [7] (laser scanning confocal microscope) is “strong fluorescence signal”. Moreover, the “Fluorescence signal on HUVECs after incubation with probe” value in the data set on HUVECs was “only scarce signal”. In addition, the “Fluorescence signal on SGC7901 after incubation with probe” value in the data set on SGC7901 cells is “only scarce signal”.

Consider `CCN1\C(=C/C=C/C=C/C2=[N+](CCCCCC(=O)O)c3ccc4c(S(=O)(=O)O)cc(S(=O)(=O)O)cc4c3C2(C)C)C(C)(C)c2c1ccc1c(S(=O)(=O)[O-])cc(S(=O)(=O)O)cc21` [Free Cy5.5, Cy5.5, reference compound], for which the “NIR signal at the tumor sites and site of accumulation, live imaging” value in data set [3] (200 ul of 5 µM in PBS via tail vein) is “accumulated mainly in the kidneys, and no significant signal was detected at the tumor sites”. The “Distribution of the NIR probe in tumor and organs, ex vivo fluorescence imaging” value in data set [4] is on record as “found in the kidney, without enrichment in the tumor”. Further, the “Course of signal intensity at the tumor site” value in data set [6] (200 ul of 5 µM via tail vein) is recorded as “dropped rapidly after 6h”.
